According to patent publication US20210024507A1, “Compounds” (Step Pharma S.A.S., priority 2018, published 2021):

Assays:
human CTPS1 [1] = target: T1, human CTPS1 (Homo sapiens, UniProt P17812); experiment: Human CTPS1 enzyme inhibition (ADP-Glo Max assay); assay type: biochemical; details: human full length CTPS1, 25° C., read-out: CTPS1 (Human CTPS1 Enzyme Inhibition, IC50 grouped by potency range)
T1 construct: purchased Proteros biostructures GmbH
T1 sequence (P17812 1-591): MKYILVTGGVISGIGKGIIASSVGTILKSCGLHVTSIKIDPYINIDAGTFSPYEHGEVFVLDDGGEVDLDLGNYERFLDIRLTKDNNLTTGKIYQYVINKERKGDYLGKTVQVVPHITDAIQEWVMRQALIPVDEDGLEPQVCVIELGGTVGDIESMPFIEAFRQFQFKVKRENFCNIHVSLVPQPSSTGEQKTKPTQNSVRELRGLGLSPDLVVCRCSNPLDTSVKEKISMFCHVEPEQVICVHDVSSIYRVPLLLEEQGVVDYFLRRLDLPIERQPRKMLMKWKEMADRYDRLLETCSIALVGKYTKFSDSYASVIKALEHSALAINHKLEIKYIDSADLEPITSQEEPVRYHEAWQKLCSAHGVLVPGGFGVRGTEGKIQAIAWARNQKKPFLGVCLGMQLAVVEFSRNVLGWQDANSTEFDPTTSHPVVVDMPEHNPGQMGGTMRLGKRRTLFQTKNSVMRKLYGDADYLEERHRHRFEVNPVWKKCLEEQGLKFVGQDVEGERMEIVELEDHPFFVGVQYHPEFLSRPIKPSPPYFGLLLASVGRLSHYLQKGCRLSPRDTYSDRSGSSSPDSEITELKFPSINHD
Protocol: The enzyme inhibitory activities of compounds invented against the target of interest were determined using the ADP-GIoTM Max assay (Promega, UK). Assays for human CTPS1 were performed in lx assay buffer containing 50mM Tris, 10mM MgCl2, 0.01% Tween-20, pH to 8.0 accordingly. Finally, immediately before use, L-cysteine was added to the lx assay buffer to a final concentration of 2mM. All reagents are from Sigma-Aldrich unless specified otherwise. Human full length active C-terminal FLAG-Hiss-tag CTPS1 (UniProtKB - P17812, CTPS[1-591]-[…]) was obtained from Proteros biostructures GmbH.
Assay Procedure 3× human CTPS1 protein was prepared in lx assay buffer to the final working protein concentration required for the reaction. A 2uL volume per well of 3x human CTPS1 protein was mixed with 2uL per well of 3× test compound (compound prepared in lx assay buffer to an appropriate final 3× compound concentration respective to the concentration response curve designed for the compounds under test) for 10 minutes at 25° C. The enzymatic reaction was then initiated by addition of a 2uL per well volume of a pre-mixed substrate mix (UltraPure ATP from ADP-GIo™ Max kit (0.31mM), GTP (0.034mM), UTP (0.48mM) and L-glutamine (0.186mM)) and the mixture was incubated for an appropriate amount of time within the determined linear phase of the reaction at 25° C. under sealed plate conditions with constant agitation at 500 revolutions per minute (rpm). ADP-GIo™ Max reagent was added for 60 minutes ([…] per well) and subsequently ADP-GIo™ Max development reagent was added for 60 minutes (12uL per well) prior to signal detection in a microplate reader (EnVision® Multilabel Reader, Perkin Elmer). Following each reagent addition over the course of the assay, assay plates were pulse centrifuged for 30 seconds at 500rpm.
In all cases, the enzyme converts ATP to ADP and the ADP-GIo™ Max reagent subsequently depletes any remaining endogenous ATP in the reaction system. The ADP-GIo™ Max detection reagent converts the ADP that has been enzymatically produced back into ATP and using ATP as a substrate together with luciferin for the enzyme luciferase, light is generated which produces a detectable luminescence. […] The percentage inhibition produced by each concentration of compound was calculated using the equation shown below: […]
(§1) Percentage inhibition was then plotted against compound concentration, and the 50% inhibitory concentration (IC50) was determined from the resultant concentration-response curve.

human CTPS1 [2] = experiment: RapidFire/MS-based enzyme selectivity assay, human CTPS1; assay type: biochemical; details: calculated from the CTPS1 and CTPS2 IC50 values
Protocol: The enzyme inhibitory activities against each target isoform of interest may be determined for the compounds of the invention using an optimised RapidFire high-throughput mass spectrometry (RF/MS) assay format. RF/MS assays for both human CTPS1 and CTPS2 may be performed in assay buffer consisting of 50mM HEPES (Merck), 20mM MgCl2, 5mM KCI, 1mM DTT, 0.01% Tween-20, pH to 8.0 accordingly. Human full-length active C-terminal FLAG-His-tag CTPS1 (UniProtKB - P17812, CTPS[1-591]-[…]) may be obtained from Proteros biostructures GmbH. Human full length active C-terminal FLAG-His-Avi tagged CTPS2 (UniProtKB-Q9NRF8, CTPS2 [1-586]- […]) may be obtained from Harker Bio.
Human CTPS (1 or 2) protein may be prepared in lx assay buffer to the final working protein concentration required for the reaction. A 2uL volume per well of 2× CTPS (1 or 2) protein may be mixed with 40nL of compound using acoustic (ECHO) delivery and incubated for 10 minutes at 25° C. Each isoform enzymatic reaction may be subsequently initiated by addition of 2uL per well of a 2× substrate mix in assay buffer. For hCTPS1: ATP (0.3mM), UTP (0.2mM), GTP (0.07mM) and L-glutamine (0.1mM). For hCTPS2: ATP (0.1mM), UTP (0.04mM), GTP (0.03mM) and L-glutamine (0.1mM). Each mixture may be incubated for an appropriate amount of time per isoform within the determined linear phase of the reaction at 25° C. A 60uL volume of stop solution (1% formic acid with 0.5uM ^13C9-^15N3-CTP in H2O) may be added and the plate immediately heat-sealed and centrifuged for 10 minutes at 4,000rpm. Following centrifugation, plates may be loaded onto the Agilent RapidFire microfluidic solid phase extraction system coupled to an AP14000 triple quadrupole mass spectrometer (RF/MS) for analysis.
In all cases, the enzyme converts UTP to CTP. Highly specific and sensitive multiple reaction monitoring (MRM) MS methods may be optimised for the detection of the enzymatic reaction product, CTP, and the stable isotope labelled product standard ^13C9-^15N3-CTP. Readout for data analysis may be calculated as the ratio between the peak area of the product CTP and the internal standard ^13C9-^15N3-CTP. For data reporting, the following equation may be used:
[formula] (R=ratio/readout, P=product signal area, IS=internal standard signal area)
For each screening plate, the means of the negative (DMSO) and positive control values were used for the calculation of the respective assay window (S/B) and Z′ values. The median of the respective control values was used for calculation of percent inhibition according to the following equation:
[formula] (I=Inhibition, Rneg=median of negative control readout values, Rpos=median of positive control readout values, Rsample=sample readout value)
as §1
Fold selectivity between CTPS1 and CTPS2 was subsequently calculated according to the following equation: […]

SMILES | IC50 (human CTPS1 [1]) | Selectivity (fold selectivity between CTPS1 and CTPS2) (human CTPS1 [2])
CCOc1cncc(-c2ccc(NC(=O)C(F)(CC)c3ccnc(NS(=O)(=O)C4CC4)n3)nc2)n1 (racemic) [P112, 2-(2-(Cyclopropanesulfonamido)pyrimidin-4-yl)-N-(5-(6-ethoxypyrazin-2-yl)pyridin-2-yl)-2-fluorobutanamide] | ≤ 100 nM | ++ (>30-60 fold (++))
CCOc1cncc(-c2ccc(NC(=O)C(F)(CC)c3ccnc(NS(=O)(=O)C4CC4)n3)nc2)n1 (single isomer, unassigned) [P113, 2-(2-(cyclopropanesulfonamido)pyrimidin-4-yl)-N-(5-(6-ethoxypyrazin-2-yl)pyridin-2-yl)-2-fluorobutanamide] | ≤ 100 nM | + (2-30 fold (+))
CCOc1cncc(-c2ccc(NC(=O)C(F)(CC)c3ccnc(NS(=O)(=O)C4CC4)n3)nc2)n1 (single isomer, unassigned) [P114, 2-(2-(cyclopropanesulfonamido)pyrimidin-4-yl)-N-(5-(6-ethoxypyrazin-2-yl)pyridin-2-yl)-2-fluorobutanamide] | ≤ 100 nM | +++ (>60 fold (+++))
CCOc1cncc(-c2ccc(NC(=O)C(F)(CC)c3cncc(NS(=O)(=O)C4CC4)n3)nc2)n1 (single isomer, unassigned) [P206, 2-(6-(cyclopropanesulfonamido)pyrazin-2-yl)-N-(5-(6-ethoxypyrazin-2-yl)pyridin-2-yl)-2-fluorobutanamide] | ≤ 100 nM | +++ (>60 fold (+++))
CCOc1cncc(-c2ccc(NC(=O)C(F)(CC)c3cncc(NS(=O)(=O)C4CC4)n3)nc2)n1 (single isomer, unassigned) [P207, 2-(6-(cyclopropanesulfonamido)pyrazin-2-yl)-N-(5-(6-ethoxypyrazin-2-yl)pyridin-2-yl)-2-fluorobutanamide] | ≤ 100 nM | + (2-30 fold (+))
CCC(C(=O)Nc1ccc(-c2cncc(Cl)c2)cc1)c1ccnc(NS(=O)(=O)C2CC2)n1 (stereo not drawn) [P1, N-(4-(5-Chloropyridin-3-yl)phenyI)-2-(2-(cyclopropanesulfonamido)pyrimidin-4-yl)butanamide] | 100 to 1000 nM | + (2-30 fold (+))
CCC(C(=O)Nc1ccc(-c2cncc(C(F)(F)F)n2)cn1)c1ccnc(NS(=O)(=O)C2CC2)n1 (stereo not drawn) [P87, 2-(2-(cyclopropanesulfonamido)pyrimidin-4-yl)-N-(5-(6-(trifluoromethyl)pyrazin-2-yl)pyridin-2-yl)butanamide] | ≤ 100 nM | ++ (>30-60 fold (++))
CCOc1cncc(-c2ccc(NC(=O)C(CC)c3ccnc(NS(=O)(=O)C4CC4)n3)nc2)n1 (stereo not drawn) [P88, 2-(2-(cyclopropanesulfonamido)pyrimidin-4-yl)-N-(5-(6-ethoxypyrazin-2-yl)pyridin-2-yl)butanamide] | ≤ 100 nM | +++ (>60 fold (+++))
CCOc1cncc(-c2ccc(NC(=O)C(CCOC)c3ccnc(NS(=O)(=O)C4CC4)n3)c(F)c2)n1 (stereo not drawn) [P146, 2-(2-(cyclopropanesulfonamido)pyrimidin-4-yl)-N-(4-(6-ethoxypyrazin-2-yl)-2-fluorophenyl)-4-methoxybutanamide] |  | +++ (>60 fold (+++))
CCOc1cncc(-c2ccc(NC(=O)C(F)(CC)c3ccnc(NS(C)(=O)=O)n3)nc2)n1 (stereo not drawn) [P151, N-(5-(6-ethoxypyrazin-2-yl)pyridin-2-yl)-2-fluoro-2-(2-(methylsulfonamido)pyrimidin-4-yl)butanamide] |  | +++ (>60 fold (+++))
CCOc1cncc(-c2ccc(NC(=O)C(OC)c3ccnc(NS(=O)(=O)C4CC4)n3)cc2)n1 (stereo not drawn) [P164, 2-(2-(cyclopropanesulfonamido)pyrimidin-4-yl)-N-(4-(6-ethoxypyrazin-2-yl)phenyl)-2-methoxyacetamide] |  | + (2-30 fold (+))
CCOc1cncc(-c2ccc(NC(=O)C(C)(C)c3cncc(NS(=O)(=O)C4CC4)n3)nc2)n1 [P195, 2-(6-(cyclopropanesulfonamido)pyrazin-2-yl)-N-(5-(6-ethoxypyrazin-2-yl)pyridin-2-yl)-2-methylpropanamide] |  | +++ (>60 fold (+++))
CCOc1cncc(-c2ccc(NC(=O)C(C)(C)c3cncc(NS(=O)(=O)C4CC4)n3)cc2)n1 [P196, 2-(6-(cyclopropanesulfonamido)pyrazin-2-yl)-N-(4-(6-ethoxypyrazin-2-yl)phenyl)-2-methylpropanamide] |  | +++ (>60 fold (+++))
CCOc1cncc(-c2ccc(NC(=O)C3(c4cncc(NS(=O)(=O)C5CC5)n4)CCOCC3)nc2)n1 [P197, 4-(6-(cyclopropanesulfonamido)pyrazin-2-yl)-N-(5-(6-ethoxypyrazin-2-yl)pyridin-2-yl)tetrahydro-2H-pyran-4-carboxamide] |  | +++ (>60 fold (+++))
CC(C)Oc1cncc(-c2ccc(C(=O)NC(C)(C)c3cncc(NS(=O)(=O)C4CC4)n3)c(F)c2)n1 [P221, N-(2-(6-(cyclopropanesulfonamido)pyrazin-2-yl)propan-2-yl)-2-fluoro-4-(6-isopropoxypyrazin-2-yl)benzamide] |  | + (2-30 fold (+))
CC(C)(NC(=O)c1ccc(-c2cncc(C(F)(F)F)n2)cc1)c1cncc(NS(=O)(=O)C2CC2)n1 [P222, N-(2-(6-(cyclopropanesulfonamido)pyrazin-2-yl)propan-2-yl)-4-(6-(trifluoromethyl)pyrazin-2-yl)benzamide] |  | + (2-30 fold (+))
